{"source": "the supplement of paper PMC10307832", "assay_in_all_cases": "relative viability (nuclei count vs DMSO), 5 days (fraction); higher = more cells survive", "key": {"Venetoclax + Lapatinib": {"compound": "CC1(C)CCC(CN2CCN(c3ccc(C(=O)NS(=O)(=O)c4ccc(NCC5CCOCC5)c([N+](=O)[O-])c4)c(Oc4cnc5[nH]ccc5c4)c3)CC2)=C(c2ccc(Cl)cc2)C1 [Venetoclax] + CS(=O)(=O)CCNCc1ccc(-c2ccc3ncnc(Nc4ccc(OCc5cccc(F)c5)c(Cl)c4)c3c2)o1 [Lapatinib] (partner 2 µM)", "summary_of_the_method": "(§1)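 Values are medians from duplicate plates. Each reflects relative viability, defined as the nuclei count of treated wells over that of vehicle wells. Lung cancer cell lines in 1536-well plates were pin-tool dosed one day after seeding with one drug alone or with a fixed anchor-drug dose plus five library-drug doses (not always all listed) in √10 steps, then fixed, stained and imaged at 4× after 5 days.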"}, "Venetoclax + Palbociclib": {"compound": "CC1(C)CCC(CN2CCN(c3ccc(C(=O)NS(=O)(=O)c4ccc(NCC5CCOCC5)c([N+](=O)[O-])c4)c(Oc4cnc5[nH]ccc5c4)c3)CC2)=C(c2ccc(Cl)cc2)C1 [Venetoclax] + CC(=O)c1c(C)c2cnc(Nc3ccc(N4CCNCC4)cn3)nc2n(C2CCCC2)c1=O [Palbociclib] (partner 0.5 µM)", "summary_of_the_method": "as §1"}, "Selumetinib + Tozasertib": {"compound": "Cn1cnc2c(F)c(Nc3ccc(Br)cc3Cl)c(C(=O)NOCCO)cc21 [Selumetinib] + Cc1cc(Nc2cc(N3CCN(C)CC3)nc(Sc3ccc(NC(=O)C4CC4)cc3)n2)n[nH]1 [Tozasertib] (partner 0.1 µM)", "summary_of_the_method": "as §1"}, "Selumetinib + Luminespib": {"compound": "Cn1cnc2c(F)c(Nc3ccc(Br)cc3Cl)c(C(=O)NOCCO)cc21 [Selumetinib] + CCNC(=O)c1noc(-c2cc(C(C)C)c(O)cc2O)c1-c1ccc(CN2CCOCC2)cc1 [Luminespib] (partner 0.01 µM)", "summary_of_the_method": "as §1"}}, "data": [{"cell line": "UMC-11", "values": [{"measurement": "relative viability", "setting": "Venetoclax + Lapatinib; first compound 0.01 µM", "result": 0.828}, {"measurement": "relative viability", "setting": "Venetoclax + Lapatinib; first compound 0.03162 µM", "result": 0.942}, {"measurement": "relative viability", "setting": "Venetoclax + Lapatinib; first compound 0.1 µM", "result": 0.712}, {"measurement": "relative viability", "setting": "Venetoclax + Lapatinib; first compound 0.3162 µM", "result": 0.928}, {"measurement": "relative viability", "setting": "Venetoclax + Lapatinib; first compound 1 µM", "result": 0.912}, {"measurement": "relative viability", "setting": "Venetoclax + Palbociclib; first compound 0.01 µM", "result": 0.37}, {"measurement": "relative viability", "setting": "Venetoclax + Palbociclib; first compound 0.03162 µM", "result": 0.334}, {"measurement": "relative viability", "setting": "Venetoclax + Palbociclib; first compound 0.1 µM", "result": 0.277}, {"measurement": "relative viability", "setting": "Venetoclax + Palbociclib; first compound 0.3162 µM", "result": 0.304}, {"measurement": "relative viability", "setting": "Venetoclax + Palbociclib; first compound 1 µM", "result": 0.324}, {"measurement": "relative viability", "setting": "Selumetinib + Tozasertib; first compound 0.02 µM", "result": 0.215}, {"measurement": "relative viability", "setting": "Selumetinib + Tozasertib; first compound 0.06325 µM", "result": 0.203}, {"measurement": "relative viability", "setting": "Selumetinib + Tozasertib; first compound 0.2 µM", "result": 0.205}, {"measurement": "relative viability", "setting": "Selumetinib + Tozasertib; first compound 0.6325 µM", "result": 0.199}, {"measurement": "relative viability", "setting": "Selumetinib + Luminespib; first compound 0.02 µM", "result": 1.14}, {"measurement": "relative viability", "setting": "Selumetinib + Luminespib; first compound 0.06325 µM", "result": 0.869}, {"measurement": "relative viability", "setting": "Selumetinib + Luminespib; first compound 0.2 µM", "result": 1.08}, {"measurement": "relative viability", "setting": "Selumetinib + Luminespib; first compound 0.6325 µM", "result": 0.967}]}]}
